Assay results: patent US11291674B2 (CALITHERA BIOSCIENCES, INC., priority 2016, dated 2022)

Assays:
[1] = tested on: LLC tumors; assay: LLC tumors in SCID mice; type: in vivo, mouse; conditions: 100 mg/kg PO twice daily
Experimental: Tumors from LLC studies were analyzed on study day 13 (CD8^+ cell depletion) or study day 14 (NK cell depletion). (****P<0.0001; ***P<0.001; **P<0.01).
Murine tumor studies. Female wild-type C57BL/6 and Balb/c mice (5-6 weeks old) were purchased from Charles River Laboratories (Hollister, Calif.). Severe combined immune deficient (SCID, B6.CB17-PrkdcSCID/SzJ) and Pmel-1 TCR transgenic (B6.Cg-Thyla/Cy Tg(TcraTcrb)8Rest/J) mice (5-6 weeks old) were purchased from The Jackson Laboratory (Bar Harbor, Me.). All mice were housed and treated in accordance with Institutional Animal Care and Use Committee guidelines. For the 4T1 tumor model, 1×10^5 cells were injected orthotopically into the mammary fat pad; for all other tumor models, 1×10^6 cells were injected subcutaneously (s.c.) in the right flank. […] Control groups received vehicle (water) twice daily by gavage. Tumor volume measured by digital caliper (length×width×width/2) and body weight were recorded three times weekly. Animals were euthanized when tumors necrotized or volumes reached 2000 mm^3. Anti-PD-L1 antibody (5 mg/kg, clone 10F.9G2, BioXCell, West Lebanon, N.H.) was injected intraperitoneally (i.p.) on days 5, 7, 9, 11, 13, and 15 for the CT26 model. Gemcitabine (Selleckchem, Houston, Tex.) was dosed 50 mg/kg i.p. on days 10 and 16 for the CT26 model or 60 mg/kg i.p. on days 6 and 10 for the LLC model. […]

[2] = tested on: LLC cell line; assay: Cytotoxicity assay (CellTiterGlo), LLC; type: cell-based, murine; conditions: 1 mM arginase inhibitor, 72 h
Experimental: (§1) Cytotoxicity assays. […] Cytotoxicity was assayed by the addition of CellTiterGlo reagent according to the manufacturer's instructions (Promega, Madison, Wis.) followed by […] quantification on a Molecular Devices plate reader (Sunnyvale, Calif.).

[3] = target: T1, Recombinant bovine endothelial NOS (Bos taurus, UniProt P29473); assay: NOS activity assay, endothelial NOS; type: biochemical; conditions: 50 μM arginase inhibitor
T1 construct: Eurofins/Cerep Panlabs (contract laboratory that ran the assay)
Description: (§2) Nitric oxide (NO) synthase (NOS) activity assays.
(§3) Standard deviations are indicated in parentheses. […] N/A=not applicable.

[4] = tested on: G-MDSC-mediated suppression of T cell proliferation; assay: T cell proliferation in media conditioned by G-MDSC of a lung cancer patient; type: cell-based, human
Experimental: T cell/myeloid cell co-culture assays. […] Granulocytes were incubated for 48 h at 37° C., during which time they spontaneously activate as determined by surface expression of CD66b and scatter properties. T cells isolated from the same donor using a pan-T cell isolation kit (Stemcell Technologies) were loaded with CFSE and plated with immobilized anti-CD3 and soluble anti-CD28 in the presence of the aged granulocytes. The cells were co-cultured at several ratios of granulocytes to T cells as indicated or at a fixed ratio of 4 T cells to 1 granulocyte. Co-cultures were incubated for 3-4 days, at which time media were analyzed for L-arginine and L-ornithine by mass spectrometry and T cell proliferation was determined by flow cytometry. Granulocytic MDSC (G-MDSC) or granulocytes from cancer patients were isolated from whole blood purchased from Conversant Biologics. G-MDSCs were purified from the PBMC layer of a Ficoll gradient by positive selection for CD66b^+ cells. Granulocytes were purified from the RBC layer of a Ficoll gradient using Hetasep (Stemcell Technologies). […] Cytokines were quantified in the media from T cell co-culture assays using the Cytometric Bead Array kit according to the manufacturer's instructions (BD Biosciences).

[5] = tested on: intracellular arginase in Human HepG2 cell line; assay: Native arginase activity in intact cells, HepG2; type: cell-based; conditions: mean (SD), N=3, 10 mM L-arginine, urea in media after 24 h
Description: Native arginase activity in intact cells.
Standard deviations are indicated in parentheses.

[6] = tested on: B16 cell line; assay: Cytotoxicity assay (CellTiterGlo), B16; type: cell-based, murine; conditions: 1 mM arginase inhibitor, 72 h
Experimental: as §1

[7] = tested on: cancer patient granulocyte-mediated suppression of T cell proliferation; assay: T cell proliferation in media conditioned by granulocytes of a head and neck cancer patient; type: cell-based, human
Experimental: T cell/myeloid cell co-culture assays. […] Granulocytes were incubated for 48 h at 37° C., during which time they spontaneously activate as determined by surface expression of CD66b and scatter properties. T cells isolated from the same donor using a pan-T cell isolation kit (Stemcell Technologies) were loaded with CFSE and plated with immobilized anti-CD3 and soluble anti-CD28 in the presence of the aged granulocytes. The cells were co-cultured at several ratios of granulocytes to T cells as indicated or at a fixed ratio of 4 T cells to 1 granulocyte. Co-cultures were incubated for 3-4 days, at which time media were analyzed for L-arginine and L-ornithine by mass spectrometry and T cell proliferation was determined by flow cytometry. Granulocytic MDSC (G-MDSC) or granulocytes from cancer patients were isolated from whole blood purchased from Conversant Biologics. G-MDSCs were purified from the PBMC layer of a Ficoll gradient by positive selection for CD66b^+ cells. Granulocytes were purified from the RBC layer of a Ficoll gradient using Hetasep (Stemcell Technologies). G-MDSC or granulocytes were incubated in co-culture media containing 100 μM L-arginine for 48 h, at which time the cells were removed and the G-MDSC- or granulocyte-conditioned media were used for incubating healthy donor CFSE-loaded T cells on immobilized anti-CD3/soluble anti-CD28 for 3-4 days. Cytokines were quantified in the media from T cell co-culture assays using the Cytometric Bead Array kit according to the manufacturer's instructions (BD Biosciences).

[8] = tested on: LLC tumors; assay: LLC syngeneic tumor model; type: in vivo, mouse
Description: Murine tumor studies. Female wild-type C57BL/6 and Balb/c mice (5-6 weeks old) were purchased from Charles River Laboratories (Hollister, Calif.). Severe combined immune deficient (SCID, B6.CB17-PrkdcSCID/SzJ) and Pmel-1 TCR transgenic (B6.Cg-Thyla/Cy Tg(TcraTcrb)8Rest/J) mice (5-6 weeks old) were purchased from The Jackson Laboratory (Bar Harbor, Me.). All mice were housed and treated in accordance with Institutional Animal Care and Use Committee guidelines. For the 4T1 tumor model, 1×10^5 cells were injected orthotopically into the mammary fat pad; for all other tumor models, 1×10^6 cells were injected subcutaneously (s.c.) in the right flank. […] Control groups received vehicle (water) twice daily by gavage. Tumor volume measured by digital caliper (length×width×width/2) and body weight were recorded three times weekly. Animals were euthanized when tumors necrotized or volumes reached 2000 mm^3. Anti-PD-L1 antibody (5 mg/kg, clone 10F.9G2, BioXCell, West Lebanon, N.H.) was injected intraperitoneally (i.p.) on days 5, 7, 9, 11, 13, and 15 for the CT26 model. Gemcitabine (Selleckchem, Houston, Tex.) was dosed 50 mg/kg i.p. on days 10 and 16 for the CT26 model or 60 mg/kg i.p. on days 6 and 10 for the LLC model. For CD8^+ cell depletion, mice were injected i.p. with anti-CD8 antibody (25 mg/kg, clone 2.43, BioXCell) on days −1, 0, +5, and +10. For NK cell depletion, mice were injected i.p. with anti-NK1.1 antibody (25 mg/kg, clone PK136, BioXCell) in the LLC and B16 models or with anti-Asialo GM1 sera (20 μL, Wako Chemicals, Richmond, Va.) in the CT26 model, per the same schedule as anti-CD8.
Tumor dissociation and flow cytometry. […] Excised tumors were placed in RPMI-1640 containing 5% FBS on ice, minced with a razor blade, and dissociated in RPMI-1640 supplemented with mouse tumor dissociation enzymes (Miltenyi Biotec, Bergisch Gladbach, Germany) on a GentleMACS Octo Dissociator With Heat (Miltenyi Biotec) according to the manufacturer's instructions. Dissociated tumors were strained through 70 μm nylon mesh, washed with cold PBS containing 2% FBS, blocked with anti-CD16/CD32 (Fc block antibody, eBioscience), and stained for cell surface antigens. For B16 and 4T1 tumors, washed dissociated tumor cells were incubated with Dead Cell Removal MicroBeads (Miltenyi Biotec) and applied to a magnetic column prior to staining. For intracellular staining, cells were fixed and permeabilized using buffers purchased from R&D Systems or eBioscience for cytoplasmic or nuclear antigens, respectively. All tumor flow experiments were acquired on an Attune N×T flow cytometer and analyzed with FlowJo software version 10 (Ashland, Oreg.), using fluorescence-minus-one controls for gating and single-stained OneComp eBeads (eBioscience) to set compensation matrices.
Gene expression analysis. […] RNA was extracted for gene expression analysis and transcripts were quantified by NanoString Technologies (Seattle, Wash.).
Cytokine analysis. […] Tumors were homogenized in 50 mM Tris-HCl buffer containing 2 mM EDTA, pH 7.4 and protease inhibitors. The homogenate was centrifuged and the supernatant was collected and re-frozen. Cytokines in the supernatant were quantified by Myriad Rules Based Medicine (Austin, Tex.).

[9] = target: T2, Recombinant murine inducible NOS (Mus musculus, UniProt P29477); assay: NOS activity assay, inducible NOS; type: biochemical; conditions: 50 μM arginase inhibitor
T2 construct: Eurofins/Cerep Panlabs (contract laboratory that ran the assay)
Description: as §2, §3

[10] = 100 mg/kg BID, study day 14, flow cytometry

**Q.** What does the source list for C[C@H](N)C(=O)N1C[C@H](CCCB(O)O)[C@](N)(C(=O)O)C1 [arginase inhibitor]?
**A.** Efficacy on LLC tumor growth in the SCID background [1]: abrogated; Growth inhibition of LLC cell line [2]: No growth inhibition; Inhibition of endothelial NOS [3]: No inhibition; Arginine depletion of the media ([4]; G-MDSC of a lung cancer patient): arginine depletion was blocked; T cell proliferation restored, of control levels ([4]; media conditioned by G-MDSC of a lung cancer patient): 99%; IC50 [5]: 32 µM; Growth inhibition of B16 cell line [6]: No growth inhibition; Secretion of interferon-γ and granzyme-B into the media ([7]; T cells in cancer patient granulocyte-conditioned media): restored secretion; Arginine depletion of the media ([7]; granulocytes of a head and neck cancer patient): arginine depletion was blocked; T cell proliferation restored, of control levels ([7]; media conditioned by granulocytes of a head and neck cancer patient): 79%; Tumor growth, single agent ([8]; 100 mg/kg BID PO): significantly inhibited the growth; Transcripts of interferon-responsive genes in tumors vs vehicle ([8]; 100 mg/kg BID, Nanostring): increases; CD8+ T cells in the tumor vs vehicle [8, 10]: increase; CD68+ macrophages in the tumor vs vehicle [8, 10]: decrease; Effect of depletion of CD8+ cells on efficacy ([8]; 100 mg/kg twice daily, anti-CD8): smaller effect; Efficacy after depletion of NK cells ([8]; 100 mg/kg twice daily, anti-NK1.1): loss of efficacy; Inflammatory cytokines in tumors vs vehicle ([8]; 200 mg/kg BID, Luminex): increases; Tumor growth inhibition, combination with gemcitabine ([8]; gemcitabine 60 mg/kg i.p. days 6 and 10): significant increase in tumor growth inhibition; Inhibition of inducible NOS [9]: No inhibition
